Assay results from US8188059B2, “Compounds and methods for modulating expression of GCGR” (Isis Pharmaceuticals, Inc., priority 2006, dated 2012).

Key:
Format in all cases: in vivo, mouse
[1] = system: GCGR mRNA; assay: GCGR mRNA levels in liver of C57/BL6 mice, single i.p. dose (Example 4, Tables 35-41); conditions: 48 h, Table 35 comparison ISIS 148364 & ISIS 386626
Experimental: (§1) Eight-week old male C57/BL6 mice (Jackson Laboratory, Bar Harbor, Me.) were administered a single dose of GCGR oligonucleotide by intraperitoneal injection at a concentration of […]. Each dose group consisted of four animals. Shown in Table 31 are the sequences, motifs and conjugates of the GCGR antisense compounds used in this study. Bolded residues indicate 2′-O-methoxyethyl (2′-MOE) moieties. All compounds comprise phosphorothioate internucleoside linkages throughout and each cytosine is replaced with 5-methylcytosine. ISIS 386626, ISIS 386627 and ISIS 386628 further comprise a C16 conjugate group attached to the 2′-O position of the sugar via a diamide linkage (2′-OCH2C(═O)N(H)(CH2)4N(H)C(═O)—(CH2)15CH3). GCGR antisense compounds target published GCGR sequences, including Genbank® Accession No. BC031885.1 (SEQ ID NO: 7).
(§2) Mice were sacrificed 48 hours following injection to determine serum transaminase levels (Table 32); liver, white adipose tissue (WAT), spleen and kidney weight (Table 33); cholesterol, triglyceride and glucose levels (Table 34); GCGR mRNA levels (Tables 35-41); and full-length and total oligonucleotide concentration in liver and kidney (Table 42). Endpoints were assessed using methods described herein and well known to those of ordinary skill in the art. Data is included from a pre-treatment bleed (Pre-Bleed) and post-treatment bleed (Post-Bleed).
To determine whether the phenotypic changes shown above correlated with a decrease in GCGR mRNA, treated animals were evaluated for levels of target mRNA in liver by real time PCR according to methods described herein. Tables 35 to 41 show results from direct comparisons of the antisense compounds targeting GCGR nucleic acid for their effect on target expression. Results are expressed as percent of saline control.

[2] = ALT & AST levels, C57/BL6 mice (Example 4, Table 32); conditions: for ALT Pre-Bleed / AST Pre-Bleed: pre-treatment bleed; for ALT Post-Bleed / AST Post-Bleed: 48 hours following injection
Experimental: as §1, §2

[3] = Organ weights: liver, white adipose tissue, spleen, kidney (Example 4, Table 33); conditions: 48 h, C57/BL6 mice
Experimental: as §1, §2

[4] = Triglyceride, cholesterol and glucose levels, pre-bleed and post-bleed (Example 4, Table 34); parameters: TRIG Pre-Bleed / TRIG Post-Bleed / CHOL Pre-Bleed / CHOL Post-Bleed / Glucose Pre-Bleed / Glucose Post-Bleed: unit not given here; conditions: C57/BL6 mice; for CHOL Pre-Bleed / Glucose Pre-Bleed / TRIG Pre-Bleed: pre-treatment bleed; for CHOL Post-Bleed / Glucose Post-Bleed / TRIG Post-Bleed: post-treatment bleed, 48 h
Experimental: as §1, §2

[5] = Total and full-length antisense compound concentrations in liver and kidney (Example 4, Table 42); conditions: C57/BL6 mice; single i.p. dose; 48 h; dose not given
Experimental: as §1, §2
Treatment with the 2-10-2 MOE gapmers led to a significant dose-dependent decrease in GCGR mRNA expression. […] To determine whether the observed increase in efficiency with the short antisense compounds is due to an increase in antisense compound accumulation, full-length and total antisense compound concentration in the liver and kidney were determined.

Substance: 386626 (antisense GCTTCTCCATCATA; chemistry not fully specified) [compound 386626]
- GCGR mRNA levels in liver ([1]; 6.25 mg/kg single i.p.): 7% of saline control
- GCGR mRNA levels in liver ([1]; 12.5 mg/kg single i.p.): 3% of saline control
- GCGR mRNA levels in liver ([1]; 25 mg/kg single i.p.): 8% of saline control
- GCGR mRNA levels in liver ([1]; 50 mg/kg single i.p.): 0% of saline control
- ALT Pre-Bleed ([2]; 6.25 mg/kg dose group): 26 IU/L
- AST Pre-Bleed ([2]; 6.25 mg/kg dose group): 46 IU/L
- ALT Pre-Bleed ([2]; 12.5 mg/kg dose group): 28 IU/L
- AST Pre-Bleed ([2]; 12.5 mg/kg dose group): 44 IU/L
- ALT Pre-Bleed ([2]; 25 mg/kg dose group): 30 IU/L
- AST Pre-Bleed ([2]; 25 mg/kg dose group): 44 IU/L
- ALT Pre-Bleed ([2]; 50 mg/kg dose group): 28 IU/L
- AST Pre-Bleed ([2]; 50 mg/kg dose group): 48 IU/L
- ALT Post-Bleed ([2]; single i.p. dose 6.25 mg/kg): 42 IU/L
- AST Post-Bleed ([2]; single i.p. dose 6.25 mg/kg): 69 IU/L
- ALT Post-Bleed ([2]; single i.p. dose 12.5 mg/kg): 34 IU/L
- AST Post-Bleed ([2]; single i.p. dose 12.5 mg/kg): 90 IU/L
- ALT Post-Bleed ([2]; single i.p. dose 25 mg/kg): 36 IU/L
- AST Post-Bleed ([2]; single i.p. dose 25 mg/kg): 92 IU/L
- ALT Post-Bleed ([2]; single i.p. dose 50 mg/kg): 40 IU/L
- AST Post-Bleed ([2]; single i.p. dose 50 mg/kg): 120 IU/L
- Organ weight: Kidney ([3]; 6.25 mg/kg single i.p.): 100 % saline control
- Organ weight: Liver ([3]; 6.25 mg/kg single i.p.): 100 % saline control
- Organ weight: Spleen ([3]; 6.25 mg/kg single i.p.): 95 % saline control
- Organ weight: WAT ([3]; 6.25 mg/kg single i.p.): 90 % saline control
- Organ weight: Kidney ([3]; 12.5 mg/kg single i.p.): 97 % saline control
- Organ weight: Liver ([3]; 12.5 mg/kg single i.p.): 96 % saline control
- Organ weight: Spleen ([3]; 12.5 mg/kg single i.p.): 114 % saline control
- Organ weight: WAT ([3]; 12.5 mg/kg single i.p.): 73 % saline control
- Organ weight: Kidney ([3]; 25 mg/kg single i.p.): 103 % saline control
- Organ weight: Liver ([3]; 25 mg/kg single i.p.): 109 % saline control
- Organ weight: Spleen ([3]; 25 mg/kg single i.p.): 120 % saline control
- Organ weight: WAT ([3]; 25 mg/kg single i.p.): 97 % saline control
- Organ weight: Kidney ([3]; 50 mg/kg single i.p.): 104 % saline control
- Organ weight: Liver ([3]; 50 mg/kg single i.p.): 112 % saline control
- Organ weight: Spleen ([3]; 50 mg/kg single i.p.): 130 % saline control
- Organ weight: WAT ([3]; 50 mg/kg single i.p.): 77 % saline control
- CHOL Pre-Bleed ([4]; 6.25 mg/kg group): 85
- Glucose Pre-Bleed ([4]; 6.25 mg/kg group): 222
- TRIG Pre-Bleed ([4]; 6.25 mg/kg group): 86
- CHOL Post-Bleed ([4]; 6.25 mg/kg single i.p.): 90
- Glucose Post-Bleed ([4]; 6.25 mg/kg single i.p.): 221
- TRIG Post-Bleed ([4]; 6.25 mg/kg single i.p.): 162
- CHOL Pre-Bleed ([4]; 12.5 mg/kg group): 82
- Glucose Pre-Bleed ([4]; 12.5 mg/kg group): 232
- TRIG Pre-Bleed ([4]; 12.5 mg/kg group): 100
- CHOL Post-Bleed ([4]; 12.5 mg/kg single i.p.): 76
- Glucose Post-Bleed ([4]; 12.5 mg/kg single i.p.): 185
- TRIG Post-Bleed ([4]; 12.5 mg/kg single i.p.): 148
- CHOL Pre-Bleed ([4]; 25 mg/kg group): 87
- Glucose Pre-Bleed ([4]; 25 mg/kg group): 235
- TRIG Pre-Bleed ([4]; 25 mg/kg group): 100
- CHOL Post-Bleed ([4]; 25 mg/kg single i.p.): 72
- Glucose Post-Bleed ([4]; 25 mg/kg single i.p.): 186
- TRIG Post-Bleed ([4]; 25 mg/kg single i.p.): 187
- CHOL Pre-Bleed ([4]; 50 mg/kg group): 79
- Glucose Pre-Bleed ([4]; 50 mg/kg group): 239
- TRIG Pre-Bleed ([4]; 50 mg/kg group): 87
- CHOL Post-Bleed ([4]; 50 mg/kg single i.p.): 57
- Glucose Post-Bleed ([4]; 50 mg/kg single i.p.): 179
- TRIG Post-Bleed ([4]; 50 mg/kg single i.p.): 163
- Full-length antisense compound concentration, Kidney [5]: 355 µg/g
- Full-length antisense compound concentration, Liver [5]: 125 µg/g
- Total antisense compound concentration, Kidney [5]: 757 µg/g
- Total antisense compound concentration, Liver [5]: 274 µg/g
